The values that follow come from patent US20060073529A1, “Luciferyl peptide substrate” (priority 2004, published 2006).

The star is where a group is joined. aminoluciferin = O=C(O)[C@H]1CSC(c2nc3ccc(N*)cc3s2)=N1

Assay [1] relates to LNCaP, a prostate cancer cell line that produces PSA. Description: in vitro model: PSA-specific substrate on PSA secreting cells (FIG. 7). Conditions: serum-free media. The format is cell-based. The method, then: The LNCaP cells were incubated for 5 and 19 hours, which represented two time intervals during which the cells were to synthesize PSA, and both cell lines were transfected with SKLQ-aLuc to produce luciferase. […] (“DHT”) was used to investigate its influence on cell growth and PSA production. The cell culture media was serum-free to prevent PSA from forming complexes with various serine-protease inhibitors that are present in the serum.

In assay [2] the test system is chymotrypsin. Description: in vivo protease assay: luc mice given substrate plus chymotrypsin injections at selected sites. Further details: species or system mouse. The settings on record: mice expressing luc gene, further injections with chymotrypsin at selected sites. The procedure: In FIG. 4A, the pictured mouse was injected with luciferin. […] In FIG. 4B, the mice were injected with the modified substrate N-Ac-Phe-aminoluciferin. […] The dramatic reduction in signal intensity (note scales on images) on the second mouse is due to the lack of freely available substrate for the luciferase reaction. The mouse pictured on the right was subjected to further injections with chymotrypsin at selected sites. Chymotrypsin is a proteolytic enzyme that can use N-Ac-Phe-aminoluciferin as a substrate. […] The freely available aminoluciferin was then catalyzed by luciferase to generate the photons seen in the photograph. […] It can thus be observed that the use of aminoluciferin substrates results in increased versatility for in vivo assays such that protease activity can be assessed in live cells in vivo or in a test tube.
In a one embodiment of the invention, peptide sequences that are conjugated to aminoluciferin are cleaved by the protease chymotrypsin or by chymotrypsin-like proteases, such as, for example, PSA, a clinical marker for prostate cancer.

For assay [3], the system named is luciferase. Description: imaging of mice expressing the luc gene after substrate injection. Conditions: substrate injected, no protease injected. Type of assay: in vivo, mouse.
Method: In these experiments, injection of the mice with luciferin activates the luciferin-luciferase reaction and the subsequent emission of light, i.e., photons, which can be monitored outside the body using low light imaging systems, based on charge coupled device (“CCD”) cameras.
In FIG. 4A, the pictured mouse was injected with luciferin. […] In FIG. 4B, the mice were injected with the modified substrate N-Ac-Phe-aminoluciferin. […] The mouse pictured on the right was subjected to further injections with chymotrypsin at selected sites. Chymotrypsin is a proteolytic enzyme that can use N-Ac-Phe-aminoluciferin as a substrate.
The test system of assay [4] is chymotrypsin. The experiment in a line: protease assay of FIG. 3, performed in culture. Type of assay: cell-based. An excerpt: The procedure described in FIG. 2 may be used in in vivo protease assays. Naturally occurring proteases can be used to convert luciferylpeptides to aminoluciferin. These naturally occurring proteases may be associated with a physical state of the body, an organ, tissue, or cells, or may be associated with the location of particular conditions. There, the luciferylpeptide, N-Ac-Phe-aminoluciferin, was synthesized from a solution of 6-amino-2-cyanobenzothiazole, pursuant to the procedure set forth in Monsees et al., supra. […] The aminoluciferin was then available for reaction with luciferase, and in the presence of ATP and O2 in the cells, produced visible light and oxyaminoluciferin. The procedure shown in FIG. 3 was initially performed in culture and subsequently in a transgenic mouse model. This procedure can be modified by adding different compounds to the aminoluciferin, and cleaving the conjugate at the appropriate time and place with specific enzymes.

In assay [5] the target is luciferase (Photinus pyralis, UniProt P08659). The settings on record: in the presence of ATP, Mg2+/O2 and luciferase; cited from earlier work.
Another assay has as its system LNCaP tumor (PSA). The experiment in a line: in vivo model: SCID mice bearing subcutaneous LNCaP tumor (FIG. 8). The settings on record: FIG. 8B. Further details: species or system mouse. The procedure: The peptides were then tested in severe compromised immune deficiency (SCID) mice that bore an LNCaP tumor implanted at a subcutaneous site. […] The mice were injected with luciferin to localize the tumors and confirm their presence. […] The aminoluciferin released from the cleavage of the peptide by PSA is transported across the LNCaP cell membrane and reacts with luciferase to emit light. Thus, the aminoluciferyl peptide is activated by PSA and consequently can be used to target PSA producing cells in animal models.

Chain of luciferase (Photinus pyralis, UniProt P08659) (P08659 whole entry): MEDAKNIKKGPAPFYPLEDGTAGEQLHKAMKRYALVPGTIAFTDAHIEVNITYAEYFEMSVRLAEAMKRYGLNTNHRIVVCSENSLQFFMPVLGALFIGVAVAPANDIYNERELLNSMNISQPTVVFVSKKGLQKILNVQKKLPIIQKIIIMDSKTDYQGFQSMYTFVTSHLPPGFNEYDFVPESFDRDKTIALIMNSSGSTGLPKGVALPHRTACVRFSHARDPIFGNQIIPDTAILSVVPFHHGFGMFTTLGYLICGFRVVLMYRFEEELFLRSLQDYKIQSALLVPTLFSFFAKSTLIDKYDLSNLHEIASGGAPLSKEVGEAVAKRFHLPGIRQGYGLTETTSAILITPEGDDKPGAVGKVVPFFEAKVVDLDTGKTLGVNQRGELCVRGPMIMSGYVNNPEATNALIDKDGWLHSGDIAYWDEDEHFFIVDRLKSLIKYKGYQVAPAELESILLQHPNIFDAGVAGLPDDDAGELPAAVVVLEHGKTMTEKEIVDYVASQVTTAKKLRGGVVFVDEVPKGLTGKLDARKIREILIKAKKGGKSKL

Consider `C[C@]12CCC(=O)C[C@@H]1CC[C@@H]1[C@@H]2CC[C@]2(C)[C@@H](O)CC[C@@H]12` [DHT, Dihydroxytestosterone], for which, in assay [1] (LNCaP/PC3M), the “influence on PSA levels” value is on record as “does not appear to influence” and the “influence on cell growth” value is “does not appear to influence”.
Consider `CC(=O)N[C@@H](Cc1ccccc1)C(=O)Nc1ccc2nc(C3=N[C@@H](C(=O)O)CS3)sc2c1` [N-Ac-Phe-aminoluciferin], for which the “photon emission from the mouse after protease injection” value with chymotrypsin [2] was “only the sites where the protease enzyme was injected produced detectable signals”. Besides, in the assay on luciferase [3], the “photon emission from the mouse” value is “only isolated regions of the mouse produced low level photon emission”. Also, in the assay with chymotrypsin [4] (before addition of chymotrypsin), the “luminescence of the intact luciferylpeptide” value is listed as “prevented from luminescing”. Moreover, the “cleavage of the luciferylpeptide by the protease” value in the assay on chymotrypsin [4] (upon addition of chymotrypsin) is given as “aminoluciferin was cleaved from the luciferylpeptide”.
As for `Nc1ccc2nc(C3=N[C@@H](C(=O)O)CS3)sc2c1` [aminoluciferin, D-(−)-2-(6′-amino-2′-benzothiazolyl)-Δ^2-thiazoline-4-carboxylic Acid], the “light generation compared with luciferin” value on luciferase [5] is on record as “generates light to the same extent as does luciferin”.
As to `O=C(O)[C@H]1CSC(c2nc3ccc(O)cc3s2)=N1` [luciferin, (D)-(−)-2-(6′-Hydroxy-2′-benzothiazolyl)-2-thiazoline-4-carboxylic acid], in the assay on luciferase [3], the “photon emission from the mouse” value was “most of the tissues of this mouse emitted visible light”.
Turning to “Ac-Ser-Lys-Leu-Gln-aLuc (Ac-SKLQ-aminoluciferin; SMILES CC(=O)N[C@@H](CO)C(=O)N[C@@H](CCCCN)C(=O)N[C@@H](CC(C)C)C(=O)N[C@@H](CCC(N)=O)C(=O)Nc1ccc2nc(C3=N[C@@H](C(=O)O)CS3)sc2c1) [SKLQ-aLuc]”, in assay [1] (LNCaP incubated 5 and 19 hours, PC3M as non-PSA line), the “amount of aminoluciferyl peptide detected in the cells versus PSA secreted” value is given as “directly proportional to the amount of PSA secreted into the media by the LNCaP cells”. Besides, the “light emission from LNCaP tumors” value in the assay with LNCaP tumor (PSA) is “light emission from these tumors”.
